The source of these data is US5935840A, “Activated recombinant adenovirus proteinases” (priority 1995, dated 1999).

Entries after “also recorded” stand apart in the source; their conditions may differ.

The test system of series [1] is (Leu-Arg-Gly-Gly-NH)2 -rhodamine. Nature of the series: Fluorescence assay of proteinase activity of virus and recombinant proteinase preparations. The format is biochemical. The text has this:
The nature of the proteinase cofactor(s) was pursued with the aid of the second assay, which utilizes the substrate (Leu-Arg-Gly-Gly-NH)2 -rhodamine. The design of this substrate was based on two facts. (1) It was known that the proteinase present in disrupted Ad2 virions would cleave small peptides with sequence similar to that found at natural cleavage sites in adenovirus virion precursors (Webster et al., 1989). (2) Cleavage of either tetra-peptide sequence from the substituted rhodamine substrate produces a very large increase, up to a 3500-fold, in fluorescence. Under conditions where only a small fraction of the rhodamine substrate is cleaved, the increase in fluorescence is proportional to the amount of proteinase present and to the time of incubation. Thus, the fluorescence assay provides a quantitative method for assessing proteinase activity that is more sensitive convenient and rapid than the gel electrophoresis assay.
Assays were performed in 400 μl of Assay Buffer (50 mM Tris-HCl, pH 7.4, 25 mM NaCl, 10 mM octylglucoside, and 1 mM dithiothreitol). […] When present, the number of disrupted virus particles was 10^10 and the amount of recombinant proteinase was 0.12 mAU280 nm. […] After 30 minutes at 37° C., a 360 μl aliquot of the reaction was added to 340 μl of Assay Buffer minus octylglucoside, and the increase in fluorescence was measured. The excitation wavelength was 492 nm and the emission wavelength was 523 nm, both with a bandwidth of 5 nm. The change in fluorescence, ΔF, is the magnitude of the fluorescence from the sample minus the magnitude of the fluorescence from an identical solution without enzyme.
Disrupted virus was obtained as follows: Twice CsCl-banded virus was dialyzed against 10 mM Tris-HCl, pH 8.0, 1mM EDTA and centrifuged at 100,000×g for 1 hour. The pellet was suspended in 10 mM Tris-HCl, pH 6.8, containing 20% (v/v) glycerol and, after three 10 second bursts of sonication, was stored at -20° C. The fluorogenic substrate was synthesized and purified at BNL by Dr. Walter Mangel, using methods similar to those previously described by Dr. Mangel. These methods are described in two U.S. Patents (U.S. Pat. No. 4,557,862 entitled "Rhodamine derivatives as fluorogenic substrates for proteinases" by Mangel, W. F., Leytus, S., and L. Helhado; issued Dec. 10, 1985; U.S. patent application Ser. No. 780,552; "Novel rhodamine derivatives as fluorogenic substrates" by Mangel, W. F., Leytus, S., and L. Helhado; filing date Sep. 24, 1985) and in other publications by Mangel and co-workers.

The test system of series [2] is Ad2 major core protein precursor, pVII. The experiment in a line: Assay of adenovirus proteinase activity in crude extracts: cleavage of [35S]-methionine-labeled pVII (SDS-PAGE, autoradiography). The format is biochemical, adenovirus type 2. The procedure: The expression products of the above-described Ad2 and Ad12 proteinase plasmids were tested for their ability to cleave the Ad2 major core protein precursor, pVII, in crude extracts from adenovirus-infected cells. The extracts were obtained from human cells infected with the temperature-sensitive mutant Ad2 strain, H2ts1, which has a defective proteinase. As described below, adenovirus proteinase activity requires the presence of two cofactors. […] The recombinant proteinases were also characterized by peptide sequence analysis of their amino-termini.
Bacterial extracts were incubated with the radiolabeled substrate (pVII). Samples were removed at different times and analyzed by SDS-PAGE and autoradiography. […] Appearance of the processed VII band and concurrent decrease of the precursor pVII band indicates proteinase activity. Radiolabeled proteins of Ad2 virions were run on the gel to indicate the positions of pVII, VII, and other virion components (lane a). Extracts from Ad2 -infected HeLa cells were assayed as a positive control for proteinase activity (lane b).
Adenovirus proteinase activity was monitored by the cleavage of [^35 S]-methionine-labeled major core precursor (pVII) essentially as described (Bhatti and Weber, Biochem. Biophys. Res. Comm. 81: 973-797, (1978)). The proteinase substrate was prepared from Ad2Ad2tsl-infected HeLa cells grown at 39° C. and labeled with [^35 S]-methionine (200 μCi/plate) from approximately 28 to 30 hours after infection. Labeled cultures were harvested, washed twice in Phosphate Buffered Saline (PBS), resuspended in 1.0 ml of 10 mM sodium phosphate buffer, pH 7.4, per plate, and sonicated for 40 seconds using a water-cooled sonicator horn (Branson Sonic Power Co., Danbury, Conn.). The extract was then centrifuged at 12,000×g for 10 minutes, and the pellet was resuspended in 10 mM phosphate buffer.
Extracts of Ad-infected cells, harvested 40 hours after infection at 37° C. were used as a source of viral proteinase. Harvested cultures were washed twice with PBS, resuspended in 10 mM phosphate buffer, frozen and thawed once, and centrifuged at 12,000×g for 10 minutes. Pellets were resuspended in 1.0 ml phosphate buffer, pH 7.4, per 10^6 infected cells and sonicated 4×10 seconds; samples were stored at -70° C. Bacterial extracts were prepared by lysozyme-EDTAtreatment of cultures harvested 2 hours after IPTG induction.
Assays were performed by mixing equal volumes of [^35 S]-labeled substrate and test extract and incubating at 37° C. At different times, 25 μl samples were removed, mixed with 25 μl of SDS Sample Buffer, heated to 90° C., and analyzed by SDS-polyacrylamide gel electrophoresis and autoradiography as described (Anderson et al., J. Virol. 12: 241-252 (1973).
Recombinant proteinase polypeptides were assayed for proteinase activity by incubating whole-cell extracts of BL21 (DE3), pT7AD23K5/BL21(DE3), and pT7AD23k6/BL21(DE3), prepared as described above, with extracts of [^35 S]-methionine-labeled Ad2 virion precursor polypeptides. Incubation of the labeled extract at 37° C. for up to 20 hours, alone or with an extract prepared from uninfected HeLa cells, produced little change in the pattern of labeled polypeptides.

The test system of a further series is HEP1DBP. The experiment in a line: Cleavage of artificial protein substrate HEP1DBP (SDS-polyacrylamide gel electrophoresis). The format is biochemical. The text has this:
Recombinant protein substrates that resemble natural virion precursors, such as pVI, can be produced in E. coli by genetic engineering methods similar to those used for expression of recombinant adenovirus proteinase. The recombinant substrate may have an artificial leader sequence that can be removed by proteinase-mediated cleavage. The leader can be designed to aid in purification of the substrate; thus the recombinant substrate can be produced and purified much more efficiently than natural adenovirus substrates. Recombinant protein substrates also serve as prototypes of potential commercial products, showing that the adenovirus proteinase will remove an artificial leader sequence from a recombinant protein that is not related to any adenovirus protein. The first artificial protein substrate was called HEP1DBP. It consists of a 17 amino acid leader (Met-Ala-Ser-Met-Thr-Gly-His-His-His-His-His-His-Gly-Met-Ser-Gly-Gly-) (SEQ ID NO: 37) attached to the initiating methionine of the 232 amino acid DNA binding protein (DBP), of bacteriophage T7. The T7 DBP is the product of gene 2.5. The recombinant proteinase substrate is produced by induction of a pET expression plasmid called pT7HEP1DBP (also called pT7HIS2) (FIG. 7A and Example 11); the predicted sequence of the expressed substrate is given in Table 1. The leader sequence contains six consecutive histidine residues to permit purification by metal affinity chromatography in a manner analogous to purification of the adenovirus proteinase. Immediately preceding the methionine corresponding to the initiation site of the T7 DBP is the tetra-amino acid element -Met-Ser-Gly-Gly- (SEQ ID NO: 38). This segment corresponds to the proteinase recognition sequence in the adenovirus virion precursor polypeptide pVI. The size of the leader sequence was chosen so that the substrate precursor HEP1DBP, and the predicted major product after cleavage, the T7 DBP, could easily be distinguished by SDS-polyacrylamide gel electrophoresis.
When purified HEP1DBP was incubated with disrupted wild-type adenovirus 2 virions, it was cleaved, as determined from the change in its mobility during SDS-polyacrylamide gel electrophoresis. No cleavage was observed when incubation was with disrupted H2ts1 virions alone.
Plasmid pT7HEP1DBP (5346 bp) is a pET-3 derivative that expresses the […] T7 gene 2.5 protein (a single-stranded DNA binding protein) attached to a 17-amino acid leader sequence (FIG. 19). The 249-amino acid HEP1DBP polypeptide serves as an artificial substrate for the adenovirus EP; the leader peptide, MASMTGHHHHHHGMSGG- (SEQ ID NO: 37), ends with the Ad2 proteinase recognition sequence -MSGG- (SEQ ID NO: 38) [Anderson, C. […]

Series [3] can be described thus: Solubility of bacterially expressed proteinases (10,000×g supernatant/pellet of lysed E. coli). The format is physicochemical. The procedure:
The 23k5 and 23k6 products were tested for solubility as an indication of protein folding. Induced bacteria were harvested and lysed with lysozyme-EDTA, and 10,000×g supernatants were prepared.
The expressed proteinase polypeptides were then tested for solubility. Induced bacteria were harvested and lysed with lysozyme-EDTA, and 10,000×g supernatants were prepared. In each case, the majority of the proteinase polypeptide was found in the 10,000×g pellet. When pellet fractions were analyzed by SDS-polyacrylamide gel electrophoresis in the absence of a reducing agent, only a small fraction of the proteinase polypeptides entered the stacking gel, showing that most of the bacterially synthesized proteinase was misfolded and crosslinked through disulfide bonds. This finding was true for both pT7AD23K5 products (23k5a and 23k5b) as well as for the 23k6 polypeptide.

As to “rEP protein: purified recombinant Ad2 proteinase, an activatable proteinase”, the “Rate of substrate hydrolysis by the rEP protein alone” value in series [1] (8.3 nM rEP protein, 1 μM substrate, no cofactors) is on record as “less than 0.014 pmol substrate min^-1”. Further, the “Proteinase activity in fluorescence assay” value is on record as “Activity was obtained” in series [1] (complemented with disrupted H2ts1 virus) and “no activity” in series [1] (preparation alone).
Consider “H2ts1: ts Ad2 proteinase with P to L mutation in codon 137, expressed from pT7AD23K18”, for which the Activity/Conditions entry in series [2] (no growth conditions printed) is listed as “Temperature-”. In the series on HEP1DBP (DEAE flow-through fractions from pT7AD23K18/BL21(DE3) grown at 30° C., in the presence of H2ts1 virions, substrate not stated), the EP activity entry is “No EP activity”.
For the substance “23K6: recombinant wild-type 204/203 amino acid Ad2 proteinase expressed from pT7AD23k6 in E. coli”, the “Stability of processing activity in the bacterial extracts” value in series [2] (37° C.) is “about 2 hours”. The Activity/Conditions result in series [2] (Induced, log phase) is listed as “Active”. In addition, the “Time by which virtually all of pVII had been converted to VII” value in series [2] (bacterial extract, 37° C.) is on record as no more than 2 hours. Also, in series [2] (extracts of IPTG-induced, log phase cells), the “Proteinase activity (cleavage of pVII)” value is “significant proteinase activity; also recorded: active”. The “Cleavage of HEP1DBP” value in the series with HEP1DBP (incubated with HEP1DBP alone, no added cofactors) is given as “no cleavage”. In series [3] (incubation temperature lowered to 30° at addition of IPTG), the “Part of recombinant proteinase that folds into a soluble protein” value was “approximately half”. The “Solubility of expressed proteinase” value in series [3] (induced bacteria lysed with lysozyme-EDTA, 10,000×g) is recorded as “majority of the proteinase was found in the insoluble pellet”.
